The structures appear in SMILES notation.

As a reminder, the IC50 is the concentration needed to halve the response being measured.

The experiment deals with T1, chicken gizzard smooth muscle myosin subfragment-1 chemically crosslinked to cardiac or skeletal actin (Gallus gallus, UniProt P10587).
T1 construct: chicken gizzard smooth muscle myosin subfragment-1; from tissue; host or cells: chicken gizzard
T1 sequence (P02607 2-151): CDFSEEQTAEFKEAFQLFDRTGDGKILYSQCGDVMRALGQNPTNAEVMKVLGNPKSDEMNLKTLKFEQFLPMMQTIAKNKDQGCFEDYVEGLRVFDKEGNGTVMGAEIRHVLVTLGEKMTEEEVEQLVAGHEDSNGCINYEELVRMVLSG
T1 sequence (P10587 84-789): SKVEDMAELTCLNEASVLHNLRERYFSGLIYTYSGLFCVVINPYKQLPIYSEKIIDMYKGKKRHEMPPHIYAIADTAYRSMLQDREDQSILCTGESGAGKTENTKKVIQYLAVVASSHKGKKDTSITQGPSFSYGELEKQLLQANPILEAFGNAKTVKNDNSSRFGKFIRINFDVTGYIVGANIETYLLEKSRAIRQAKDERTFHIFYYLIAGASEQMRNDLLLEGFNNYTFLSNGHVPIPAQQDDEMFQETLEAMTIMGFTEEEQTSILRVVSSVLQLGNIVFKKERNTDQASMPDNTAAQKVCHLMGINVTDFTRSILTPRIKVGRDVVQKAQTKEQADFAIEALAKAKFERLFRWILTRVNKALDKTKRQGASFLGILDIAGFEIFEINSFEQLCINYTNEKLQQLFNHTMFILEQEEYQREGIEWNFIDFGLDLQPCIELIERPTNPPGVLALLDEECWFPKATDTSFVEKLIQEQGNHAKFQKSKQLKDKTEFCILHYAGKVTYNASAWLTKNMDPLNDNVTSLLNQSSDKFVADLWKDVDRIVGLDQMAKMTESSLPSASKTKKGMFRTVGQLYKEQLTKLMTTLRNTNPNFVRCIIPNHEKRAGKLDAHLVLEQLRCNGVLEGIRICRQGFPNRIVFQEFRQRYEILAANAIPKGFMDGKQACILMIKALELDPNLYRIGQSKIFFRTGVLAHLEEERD
In words: Smooth muscle myosin ATPase dose response assay (pyruvate kinase/horseradish peroxidase/pyruvate oxidase-coupled, amplex red fluorescence). It counts as biochemical. The following applies: read-out: IC50 Arithmetic Mean. The procedure, abridged: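 Amplex red fluorescence (480 nm excitation, 615 nm emission) tracked ATP hydrolysis by smooth muscle S1 crosslinked to actin with carbodiimide/N-hydroxysuccinimide. Reactions contained 0.15 mM ATP and 100 mM KCl at pH 7.00, 22° C. IC50 came from a four-parameter logistic fit.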
Take `Cc1cc(C(=O)NCc2cccnc2CN)c(NCCc2cccc(F)c2)nc1-c1ccccc1C#N` [N-{[2-(aminomethyl)(3-pyridyl)]methyl}(6-(2-cyanophenyl)-2-{[2-(3-fluorophenyl)ethyl]amino}-5-methyl(3-pyridyl))carboxamide]: the IC50 turned out to be 158 nM.

On to `O=C(NC[C@H]1CCN1)c1cc(F)c(-c2cn[nH]c2)nc1NCCc1cccc(F)c1` [N-[((2R)azetidin-2-yl)methyl](5-fluoro-2-{[2-(3-fluorophenyl)ethyl]amino}-6-pyrazol-4-yl(3-pyridyl))carboxamide], for which the IC50 came out at 466 nM.

As for `COC(=O)[C@H](C)CNC(=O)c1ccc(-c2ccccc2C#N)nc1NCCc1cccc(F)c1` [methyl (2R)-3-[(6-(2-cyanophenyl)-2-{[2-(3-fluorophenyl)ethyl]amino}(3-pyridyl))carbonylamino]-2-methylpropanoate], the IC50 worked out at 186 nM.

On to `COC(=O)c1cccc(CNC(=O)c2ccc(-c3ccccc3C#N)nc2NCCc2cccc(F)c2)n1` [methyl 6-{[(6-(2-cyanophenyl)-2-{[2-(3-fluorophenyl)ethyl]amino}-3-pyridyl)carbonylamino]methyl}pyridine-2-carboxylate], for which the IC50 stood at 64 nM.

With `Cc1cc(C(=O)NC[C@H]2CCC(=O)N2CCCNC(=O)OC(C)(C)C)c(NCCc2cccc(F)c2)nc1-c1cnn(C)c1` [N-[((2R)-1-{3-[(tert-butoxy)carbonylamino]propyl}-5-oxopyrrolidin-2-yl)methyl](2-{[2-(3-fluorophenyl)ethyl]amino}-5-methyl-6-(1-methylpyrazol-4-yl)(3-pyridyl))carboxamide], the 50% inhibitory concentration (IC50) is 1460 nM.

In the case of `NCc1ccc(-c2ccccc2)nc1NCCc1cccc(F)c1` [[3-(aminomethyl)-6-phenyl(2-pyridyl)][2-(3 fluorophenyl)ethyl]amine], the half-maximal inhibitory concentration (IC50) came out at 39500 nM.

As for `Cn1cc(-c2nc(NCCc3cccc(F)c3)c(C(=O)NCc3cccnc3CN)cc2C#N)cn1` [N-{[2-(aminomethyl)(3-pyridyl)]methyl}(5-cyano-2-{[2-(3-fluorophenyl)ethyl]amino}-6-(1-methylpyrazol-4-yl)(3-pyridyl))carboxamide], the IC50 turned out to be 50 nM.

Take `Cc1cscc1-c1ccc(C(=O)NCc2cccnc2)c(NCCc2ccccn2)n1` [{6-(4-methyl(3-thienyl))-2-[(2-(2-pyridyl)ethyl)amino](3-pyridyl)}-N-(3-pyridylmethyl)carboxamide]: the IC50 worked out at 4060 nM.

As for `Cn1cc(-c2nc(NCCc3cccc(F)c3)c(C(=O)NC[C@H]3CCN3C(=O)COC(=O)CN)cc2F)cn1` [2-((2R)-2-{[(5-fluoro-2-{[2-(3-fluorophenyl)ethyl]amino}-6-(1-methylpyrazol-4-yl)(3-pyridyl))carbonylamino]methyl}azetidinyl)-2-oxoethyl 2-aminoacetate], the concentration for half-maximal inhibition (IC50) was found to be 45 nM.

For `N#Cc1ccccc1-c1ccc(C(=O)NCC2CCN(C(=O)CCCN)C2)c(NCCc2cccc(F)c2)n1` (stereo not shown) [N-{[1-(4-aminobutanoyl)pyrrolidin-3-yl]methyl}(6-(2-cyanophenyl)-2-{[2-(3-fluorophenyl)ethyl]amino}(3-pyridyl))carboxamide], the IC50 was determined as 433 nM.

Regarding `Cn1cc(-c2nc(NCCc3cccc(F)c3)c(C(=O)NC[C@H]3CCCN3C(=O)[C@@H](N)CO)cc2F)cn1` [N-{[(2R)-1-((2S)-2-amino-3-hydroxypropanoyl)pyrrolidin-2-yl]methyl}(5-fluoro-2-{[2-(3-fluorophenyl)ethyl]amino}-6-(1-methylpyrazol-4-yl)(3-pyridyl))carboxamide], the IC50 came to 72 nM.

For the compound `N#Cc1ccccc1-c1ccc(C(=O)NCCC(N)=O)c(NCCc2cccc(F)c2)n1` [N-(2-carbamoylethyl)(6-(2-cyanophenyl)-2-{[2-(3-fluorophenyl)ethyl]amino}(3-pyridyl))carboxamide], the IC50 was 99 nM.

In the case of `O=C(NCC(CO)CO)c1cc(F)c(-c2cn[nH]c2)nc1NCCc1cccc(F)c1` [(5-fluoro-2-{[2-(3-fluorophenyl)ethyl]amino}-6-pyrazol-4-yl(3-pyridyl))-N-[3-hydroxy-2-(hydroxymethyl)propyl]carboxamide], the IC50 was 215 nM.

The values above are taken from patent publication US7932270B2 (Cytokinetics, Inc., priority 2006, dated 2011).
